Measurements taken from patent publication US20060069132A1, “Azolecarboxamide herbicides” (priority 2004, published 2006).
Read-outs that look alike come from different tables or passages of the source.

Columns and labels:
velvetleaf = assay: Test B pre-/postemergence herbicide test; type: in vivo, Abutilon theophrasti; conditions: Abutilon theophrasti, 336 h; for pest or weed control at 125 g/ha: 125 g ai/ha; for pest or weed control at 500 g/ha: 500 g ai/ha
Method in brief: (§1)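 Response was scored visually 13 to 15 days after treatment against untreated greenhouse controls, 0 meaning no effect and 100 complete control. Formulations (solvent mixture plus surfactant) went onto soil after planting, onto foliage of 1- to 4-leaf plants, and onto 2-leaf plants in a flooded paddy set including rice and barnyardgrass.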

giant foxtail = assay: Test B pre-/postemergence herbicide test; type: in vivo, Setaria faberi; conditions: Setaria faberi, 336 h; for pest or weed control at 125 g/ha: 125 g ai/ha; for pest or weed control at 500 g/ha: 500 g ai/ha
Method in brief: as §1

Surinam grass = assay: Test B pre-/postemergence herbicide test; type: in vivo, Urochloa decumbens; conditions: Urochloa decumbens; for pest or weed control at 125 g/ha: 125 g ai/ha; for pest or weed control at 500 g/ha: 500 g ai/ha
Method in brief: as §1

wheat = assay: Test B postemergence herbicide test; type: in vivo, Triticum aestivum; conditions: Triticum aestivum, post-emergence, 336 h, postemergence, 500 g ai/ha; visual rating, scale 0 (no effect) to 100 (complete control); read-out: Wheat plant response rating
Method in brief: (§2)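 Each value is a visual 0–100 response rating taken against controls 13 to 15 days after treatment in the greenhouse. Plants received formulated chemical postemergence at the 1- to 4-leaf stage or, in flooded paddy, at the 2-leaf stage.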

barnyardgrass [1] = assay: Test B pre-/postemergence herbicide test; type: in vivo, Echinochloa crus-galli; conditions: Echinochloa crus-galli; for pest or weed control at 125 g/ha: 125 g ai/ha; for pest or weed control at 500 g/ha: 500 g ai/ha
Method in brief: (§3)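 Evaluation is visual, comparing treated with control plants on a scale where 0 means no effect and 100 means full control. Treatments were preemergence, or postemergence on seedlings 2–18 cm tall, and held 13–15 days in the greenhouse.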

corn = assay: Test B pre-/postemergence herbicide test; type: in vivo, Zea mays; conditions: Zea mays
Method in brief: as §1

lambsquarters = assay: Test B pre-/postemergence herbicide test; type: in vivo, Chenopodium album; conditions: Chenopodium album, 336 h; for pest or weed control at 125 g/ha: 125 g ai/ha; for pest or weed control at 500 g/ha: 500 g ai/ha
Method in brief: as §1

pigweed = assay: Test B pre-/postemergence herbicide test; type: in vivo, Amaranthus retroflexus; conditions: Amaranthus retroflexus, 336 h; for pest or weed control at 125 g/ha: 125 g ai/ha; for pest or weed control at 500 g/ha: 500 g ai/ha
Method in brief: as §1

morningglory = assay: Test B pre-/postemergence herbicide test; type: in vivo, Ipomoea coccinea; conditions: Ipomoea, 336 h; for pest or weed control at 125 g/ha: 125 g ai/ha; for pest or weed control at 500 g/ha: 500 g ai/ha
Method in brief: as §3

rice = assay: Test B flooded paddy test; type: in vivo, Oryza sativa; conditions: Oryza sativa, 336 h, 1000 g ai/ha, visual rating, scale 0 to 100 (0 no effect, 100 complete control), 13 to 15 days, read-out: Rice plant response rating
Method in brief: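 Postemergence plants were sprayed with formulated test chemicals at 2 to 18 cm height (1- to 4-leaf stage); paddy species were grown to the 2-leaf stage. After 13 to 15 days in a greenhouse, injury was rated visually against untreated controls on a 0–100 scale (0 = no effect, 100 = complete control).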

large crabgrass = assay: Test B pre-/postemergence herbicide test; type: in vivo, Digitaria sanguinalis; conditions: Digitaria sanguinalis; for pest or weed control at 125 g/ha: 125 g ai/ha; for pest or weed control at 500 g/ha: 500 g ai/ha
Method in brief: as §1

cocklebur = assay: Test B pre-/postemergence herbicide test; type: in vivo, Xanthium strumarium; conditions: Xanthium strumarium; for pest or weed control at 125 g/ha: 125 g ai/ha; for pest or weed control at 500 g/ha: 500 g ai/ha
Method in brief: as §3

barnyardgrass [2] = assay: Test B flooded paddy test; type: in vivo, Echinochloa crus-galli; conditions: Echinochloa crus-galli, 336 h, 1000 g ai/ha, visual rating, scale 0 to 100 (0 no effect, 100 complete control), 13 to 15 days, read-out: Barnyardgrass plant response rating
Method in brief: as §2

wild oat = assay: Test B postemergence herbicide test; type: in vivo, Avena fatua; conditions: Avena fatua, post-emergence, 336 h, postemergence, visual rating, scale 0 (no effect) to 100 (complete control), read-out: Oat, Wild plant response rating
Method in brief: as §2

ducksalad = assay: Test B flooded paddy test; type: in vivo, Heteranthera limosa; conditions: Heteranthera limosa, 336 h, 1000 g ai/ha, visual rating, scale 0 to 100 (0 no effect, 100 complete control), 13 to 15 days, read-out: Ducksalad plant response rating
Method in brief: as §2

[3] = post-emergence, postemergence, visual rating, scale 0 (no effect) to 100 (complete control), read-out: Velvetleaf plant response rating
[4] = post-emergence, postemergence, visual rating, scale 0 (no effect) to 100 (complete control), read-out: Foxtail, Giant plant response rating
[5] = post-emergence, postemergence, visual rating, scale 0 (no effect) to 100 (complete control), read-out: Surinam Grass plant response rating
[6] = post-emergence, postemergence, visual rating, scale 0 (no effect) to 100 (complete control), read-out: Barnyardgrass plant response rating
[7] = post-emergence, postemergence, visual rating, scale 0 (no effect) to 100 (complete control), read-out: Lambsquarters plant response rating
[8] = post-emergence, postemergence, visual rating, scale 0 (no effect) to 100 (complete control), read-out: Pigweed plant response rating
[9] = post-emergence, postemergence, visual rating, scale 0 (no effect) to 100 (complete control), read-out: Morningglory plant response rating
[10] = post-emergence, postemergence, visual rating, scale 0 (no effect) to 100 (complete control), read-out: Crabgrass, Large plant response rating
[11] = post-emergence, postemergence, visual rating, scale 0 (no effect) to 100 (complete control), read-out: Cocklebur plant response rating

CCn1nc(C(C)(C)C)cc1C(=O)Nc1cc(C(=O)N(C)C)ccn1 [Compound 156, 2-[[[3-(1,1-dimethylethyl)-1-ethyl-1H-pyrazol-5-yl]carbonyl]amino]-N,N-dimethyl-4-pyridinecarboxamide]
pest or weed control at 125 g/ha (velvetleaf; [3]): 60% | pest or weed control at 500 g/ha (velvetleaf; [3]): 90% | pest or weed control at 500 g/ha (velvetleaf; pre-emergence, visual rating 0-100, 0 no effect, 100 complete control, read-out: Plant response rating, Velvetleaf): 100% | pest or weed control at 125 g/ha (velvetleaf; pre-emergence, preemergence, 0 to 100 scale, 0 is no effect, 100 is complete control, read-out: Plant response rating, Velvetleaf): 100% | pest or weed control at 125 g/ha (giant foxtail; [4]): 20% | pest or weed control at 500 g/ha (giant foxtail; [4]): 40% | pest or weed control at 500 g/ha (giant foxtail; pre-emergence, visual rating 0-100, 0 no effect, 100 complete control, read-out: Plant response rating, Foxtail, Giant): 100% | pest or weed control at 125 g/ha (giant foxtail; pre-emergence, preemergence, 0 to 100 scale, 0 is no effect, 100 is complete control, read-out: Plant response rating, Foxtail, Giant): 100% | pest or weed control at 125 g/ha (Surinam grass; [5]): 10% | pest or weed control at 500 g/ha (Surinam grass; [5]): 20% | pest or weed control at 500 g/ha (Surinam grass; pre-emergence, visual rating 0-100, 0 no effect, 100 complete control, read-out: Plant response rating, Surinam Grass): 100% | pest or weed control at 125 g/ha (Surinam grass; pre-emergence, preemergence, 0 to 100 scale, 0 is no effect, 100 is complete control, read-out: Plant response rating, Surinam Grass): 90% | plant injury at 500 g/ha (wheat): 20% | pest or weed control at 125 g/ha (barnyardgrass [1]; [6]): 10% | pest or weed control at 500 g/ha (barnyardgrass [1]; [6]): 40% | pest or weed control at 500 g/ha (barnyardgrass [1]; pre-emergence, visual rating 0-100, 0 no effect, 100 complete control, read-out: Plant response rating, Barnyardgrass): 100% | pest or weed control at 125 g/ha (barnyardgrass [1]; pre-emergence, preemergence, 0 to 100 scale, 0 is no effect, 100 is complete control, read-out: Plant response rating, Barnyardgrass): 100% | plant injury at 125 g/ha (corn; post-emergence, postemergence, 125 g ai/ha, visual rating, scale 0 (no effect) to 100 (complete control), read-out: Corn plant response rating): 0% | plant injury at 500 g/ha (corn; post-emergence, postemergence, 500 g ai/ha, visual rating, scale 0 (no effect) to 100 (complete control), read-out: Corn plant response rating): 10% | Corn plant response rating (crop injury, 0 = no effect, 100 = complete kill) at 500 g/ha (corn; pre-emergence, 500 g ai/ha, visual rating 0-100, 0 no effect, 100 complete control): 80% | Corn plant response rating (crop injury, 0 = no effect, 100 = complete kill) at 125 g/ha (corn; pre-emergence, preemergence, 125 g ai/ha, 0 to 100 scale, 0 is no effect, 100 is complete control): 40% | pest or weed control at 125 g/ha (lambsquarters; [7]): 60% | pest or weed control at 500 g/ha (lambsquarters; [7]): 80% | pest or weed control at 500 g/ha (lambsquarters; pre-emergence, visual rating 0-100, 0 no effect, 100 complete control, read-out: Plant response rating, Lambsquarters): 100% | pest or weed control at 125 g/ha (lambsquarters; pre-emergence, preemergence, 0 to 100 scale, 0 is no effect, 100 is complete control, read-out: Plant response rating, Lambsquarters): 100% | pest or weed control at 125 g/ha (pigweed; [8]): 30% | pest or weed control at 500 g/ha (pigweed; [8]): 60% | pest or weed control at 500 g/ha (pigweed; pre-emergence, visual rating 0-100, 0 no effect, 100 complete control, read-out: Plant response rating, Pigweed): 100% | pest or weed control at 125 g/ha (pigweed; pre-emergence, preemergence, 0 to 100 scale, 0 is no effect, 100 is complete control, read-out: Plant response rating, Pigweed): 100% | pest or weed control at 125 g/ha (morningglory; [9]): 20% | pest or weed control at 500 g/ha (morningglory; [9]): 50% | pest or weed control at 500 g/ha (morningglory; pre-emergence, visual rating 0-100, 0 no effect, 100 complete control, read-out: Plant response rating, Morningglory): 100% | pest or weed control at 125 g/ha (morningglory; pre-emergence, preemergence, 0 to 100 scale, 0 is no effect, 100 is complete control, read-out: Plant response rating, Morningglory): 60% | plant injury at 1000 g/ha (rice): 90% | pest or weed control at 125 g/ha (large crabgrass; [10]): 10% | pest or weed control at 500 g/ha (large crabgrass; [10]): 10% | pest or weed control at 500 g/ha (large crabgrass; pre-emergence, visual rating 0-100, 0 no effect, 100 complete control, read-out: Plant response rating, Crabgrass, Large): 100% | pest or weed control at 125 g/ha (large crabgrass; pre-emergence, preemergence, 0 to 100 scale, 0 is no effect, 100 is complete control, read-out: Plant response rating, Crabgrass, Large): 90% | pest or weed control at 125 g/ha (cocklebur; [11]): 40% | pest or weed control at 500 g/ha (cocklebur; [11]): 80% | pest or weed control at 500 g/ha (cocklebur; pre-emergence, visual rating 0-100, 0 no effect, 100 complete control, read-out: Plant response rating, Cocklebur): 100% | pest or weed control at 125 g/ha (cocklebur; pre-emergence, preemergence, 0 to 100 scale, 0 is no effect, 100 is complete control, read-out: Plant response rating, Cocklebur): 100% | pest or weed control at 1000 g/ha (barnyardgrass [2]): 100% | pest or weed control at 125 g/ha (wild oat; 125 g ai/ha): 40% | pest or weed control at 500 g/ha (wild oat; 500 g ai/ha): 40% | pest or weed control at 1000 g/ha (ducksalad): 100%
